Article PMC10272112 (Nature Communications, 2023)
Read-outs that look alike come from different tables or passages of the source.

Tests used:
Assay type in all cases: binding
KDM1A = experiment: Chemoproteomic competition pulldown assay (co-competed CoREST partner)
Method: (§1) To identify proteins directly bound by lipoic acid, we employed a chemoproteomic competition assay. Briefly, (R/S)-LA was immobilized on sepharose beads via an amidation reaction to form an affinity matrix (abbreviated as iL; Fig. 1a). This affinity matrix can be incubated with cell lysate to pull down potential LA or LM target proteins and identify these targets via bottom-up proteomics. In a competition assay, free LA or LM were incubated with lysate at different concentrations before pulling down and quantifying target proteins. […] (Fig. 1b, see “Methods” for details). […] The lysate buffer used in this assay contains 1 mM DTT to mimic the intracellular reductive milieu and to reduce lipoic acid and LM. […] Additional competition assays performed in lung adenocarcinoma cell A549 lysate also identified HDAC1, HDAC2, and HDAC6 as targets (Supplementary Fig. 1b). Amongst the three cell lines tested, HDACs were the only confidently identified targets across the 1500–3000 proteins quantified in these assays. […] We validated the results by analogous pulldown competition assays using two other affinity matrices prepared via the immobilization of either the HDAC inhibitor Quisinostat (iQ) and an analog of the class IIa HDAC inhibitor Bürli’s 31[14] (iC)[12]. We have previously shown that these affinity matrices specifically bind to the active sites of HDACs and have used them for HDACi selectivity profiling. Indeed, binding of (R/S)-LA and (R/S)-LM to HDAC1, HDAC2, HDAC3, HDAC6, and, to a lesser extent, HDAC8 was confirmed in these assays (Supplementary Fig. 1c, d). No binding to class IIa HDACs or the recently discovered common HDAC inhibitor off-target MBLAC2 was observed (Supplementary Fig. 1e)[12]. […] This observation might reflect electrostatic repulsion between the HDAC10 active site gate-keeper glutamic acid residues[15],[16] and the terminal carboxylic acid of LA.
(§2) To assess the degree of protein depletion from lysates by the affinity matrix, a second pulldown (PDPD) with fresh beads was performed using the unbound protein fraction from the vehicle control flow through. The beads were washed (1 × 1 mL of lysis buffer without inhibitors and only 0.4% Igepal, 2 × 2 mL of lysis buffer without inhibitors and only 0.2% Igepal), and captured proteins were denatured with 8 M urea buffer, alkylated with 55 mM chloroacetamide and digested with Trypsin according to standard procedures. The resulting peptides were desalted on a C18 filter plate (Sep-Pak® tC18 µElution Plate, Waters), vacuum dried, and stored at −20 °C until LC–MSMS measurement.
(§3) For the competition assays, relative binding was calculated based on the protein intensity ratio to the DMSO control for every single inhibitor concentration. EC50 values were derived from a four-parameter log-logistic regression with variable slope (constrain: bottom > 0). The obtained EC50 values were multiplied with a protein-dependent correction factor (cf), resulting in the apparent Kd value (Kd^app). The correction factor is determined by calculating the ratio of the protein intensity of two consecutive pulldowns of the vehicle control sample[13]. Targets of the inhibitors were annotated manually according to published procedures[12],[46],[47]. […] Additionally, the number of unique peptides and MSMS counts per condition were taken into account. Positive target binding across several independent experiments performed with different cell lysates further substantiated our confidence for a true positive drug-target binding event.

GSE1 = experiment: as above
Method: as §1, §2, §3

HDAC2 = HDAC2 (Homo sapiens, UniProt Q92769); experiment: Chemoproteomic competition pulldown assay; set-up: endogenous in cells; host or cells: SW620, MV4-11, A549 lysates; details: for Kd: read-out: pKdapp (converted)
Sequence of HDAC2 (Q92769 whole entry): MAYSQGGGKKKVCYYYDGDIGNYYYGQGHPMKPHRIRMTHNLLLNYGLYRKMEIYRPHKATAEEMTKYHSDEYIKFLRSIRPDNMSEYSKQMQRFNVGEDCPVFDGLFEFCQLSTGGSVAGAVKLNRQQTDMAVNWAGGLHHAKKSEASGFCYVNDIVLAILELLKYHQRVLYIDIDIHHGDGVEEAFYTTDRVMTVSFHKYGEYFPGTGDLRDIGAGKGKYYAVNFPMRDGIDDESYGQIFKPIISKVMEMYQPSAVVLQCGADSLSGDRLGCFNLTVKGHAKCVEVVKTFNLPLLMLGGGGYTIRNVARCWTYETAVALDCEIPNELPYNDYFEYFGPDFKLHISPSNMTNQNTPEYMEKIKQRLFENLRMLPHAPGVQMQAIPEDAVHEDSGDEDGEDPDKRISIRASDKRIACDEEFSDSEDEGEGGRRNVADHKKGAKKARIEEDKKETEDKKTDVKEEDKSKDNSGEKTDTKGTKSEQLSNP
Method: as §1, §2, §3

HDAC1 = HDAC1 (Homo sapiens, UniProt Q13547); experiment: Chemoproteomic competition pulldown assay; set-up: endogenous in cells; host or cells: SW620, MV4-11, A549 lysates; details: for Kd: read-out: pKdapp (converted)
Sequence of HDAC1 (Q13547 whole entry): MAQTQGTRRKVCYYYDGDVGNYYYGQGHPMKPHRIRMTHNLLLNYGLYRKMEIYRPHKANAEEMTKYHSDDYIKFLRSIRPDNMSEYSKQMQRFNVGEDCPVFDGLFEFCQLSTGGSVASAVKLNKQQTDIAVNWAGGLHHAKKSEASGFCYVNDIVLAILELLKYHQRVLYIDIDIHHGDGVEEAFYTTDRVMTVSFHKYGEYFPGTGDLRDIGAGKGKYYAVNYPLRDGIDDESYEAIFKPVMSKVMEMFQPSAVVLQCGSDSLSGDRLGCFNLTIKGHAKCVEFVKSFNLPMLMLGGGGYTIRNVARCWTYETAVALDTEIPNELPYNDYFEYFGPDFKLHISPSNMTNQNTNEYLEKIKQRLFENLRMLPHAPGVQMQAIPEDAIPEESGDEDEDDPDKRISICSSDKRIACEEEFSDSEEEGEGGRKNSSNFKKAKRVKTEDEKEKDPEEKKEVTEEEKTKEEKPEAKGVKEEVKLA
Method: as §1, §2, §3

[1] = iL, A549 lysate, log10 M -4.52288
[2] = iL, A549 lysate, log10 M -5.52288
[3] = iL, A549 lysate, log10 M -6.52288
[4] = iL, A549 lysate, log10 M -7.52288
[5] = iL, A549 lysate, log10 M -8.52288
[6] = iL, SW620 lysate, log10 M -3.52288
[7] = iL, SW620 lysate, log10 M -4.52288
[8] = iL, SW620 lysate, log10 M -5.52288
[9] = iL, SW620 lysate, log10 M -6.52288
[10] = iQ, SW620 lysate, log10 M -3.52288
[11] = iQ, SW620 lysate, log10 M -4.52288
[12] = iQ, SW620 lysate, log10 M -5.52288
[13] = iQ, SW620 lysate, log10 M -6.52288

O=C(O)CCCCC1CCSS1 (racemic) [(R/S)-LA, (R/S)-lipoic acid]
relative binding vs DMSO (KDM1A; iL, A549 lysate, log10 M -4): 0.08234
relative binding vs DMSO (KDM1A; [1]): 0.1175
relative binding vs DMSO (KDM1A; iL, A549 lysate, log10 M -5): 0.1963
relative binding vs DMSO (KDM1A; [2]): 0.3595
relative binding vs DMSO (KDM1A; iL, A549 lysate, log10 M -6): 0.6514
relative binding vs DMSO (KDM1A; [3]): 1.056
relative binding vs DMSO (KDM1A; [4]): 0.9439
relative binding vs DMSO (KDM1A; iL, A549 lysate, log10 M -8): 1.171
relative binding vs DMSO (KDM1A; [5]): 1.264
relative binding vs DMSO (KDM1A; [6]): 0
relative binding vs DMSO (KDM1A; iL, SW620 lysate, log10 M -4): 0
relative binding vs DMSO (KDM1A; [7]): 0
relative binding vs DMSO (KDM1A; iL, SW620 lysate, log10 M -5): 0.08571
relative binding vs DMSO (KDM1A; [8]): 0.9092
relative binding vs DMSO (KDM1A; iL, SW620 lysate, log10 M -6): 1.31
relative binding vs DMSO (KDM1A; [9]): 1.608
relative binding vs DMSO (KDM1A; iL, SW620 lysate, log10 M -7): 1.68
relative binding vs DMSO (KDM1A; [10]): 0.1418
relative binding vs DMSO (KDM1A; iQ, SW620 lysate, log10 M -4): 0.1346
relative binding vs DMSO (KDM1A; [11]): 0.3513
relative binding vs DMSO (KDM1A; iQ, SW620 lysate, log10 M -5): 0.5517
relative binding vs DMSO (KDM1A; [12]): 0.6829
relative binding vs DMSO (KDM1A; iQ, SW620 lysate, log10 M -6): 0.6182
relative binding vs DMSO (KDM1A; [13]): 0.6303
relative binding vs DMSO (KDM1A; iQ, SW620 lysate, log10 M -7): 0.7048
relative binding vs DMSO (GSE1; iL, A549 lysate, log10 M -4): 0.002926
relative binding vs DMSO (GSE1; [1]): 0.03688
relative binding vs DMSO (GSE1; iL, A549 lysate, log10 M -5): 0.08918
relative binding vs DMSO (GSE1; [2]): 0.4136
relative binding vs DMSO (GSE1; iL, A549 lysate, log10 M -6): 0.8054
relative binding vs DMSO (GSE1; [3]): 1.293
relative binding vs DMSO (GSE1; [4]): 1.282
relative binding vs DMSO (GSE1; iL, A549 lysate, log10 M -8): 1.353
relative binding vs DMSO (GSE1; [5]): 1.278
relative binding vs DMSO (GSE1; [6]): 0
relative binding vs DMSO (GSE1; iL, SW620 lysate, log10 M -4): 0
relative binding vs DMSO (GSE1; [7]): 0
relative binding vs DMSO (GSE1; iL, SW620 lysate, log10 M -5): 0.09089
relative binding vs DMSO (GSE1; [8]): 0.3606
relative binding vs DMSO (GSE1; iL, SW620 lysate, log10 M -6): 1.287
relative binding vs DMSO (GSE1; [9]): 0.7924
relative binding vs DMSO (GSE1; iL, SW620 lysate, log10 M -7): 1.217
relative binding vs DMSO (GSE1; [10]): 0.1048
relative binding vs DMSO (GSE1; iQ, SW620 lysate, log10 M -4): 0.1152
relative binding vs DMSO (GSE1; [11]): 0.3197
relative binding vs DMSO (GSE1; iQ, SW620 lysate, log10 M -5): 0.4493
relative binding vs DMSO (GSE1; [12]): 0.5952
relative binding vs DMSO (GSE1; iQ, SW620 lysate, log10 M -6): 0.7905
relative binding vs DMSO (GSE1; [13]): 0.8177
relative binding vs DMSO (GSE1; iQ, SW620 lysate, log10 M -7): 0.7924
Kd (HDAC2; iL, A549): 1 µM
relative binding vs DMSO (HDAC2; iL, A549 lysate, log10 M -4): 0.3867
relative binding vs DMSO (HDAC2; [1]): 0.2342
relative binding vs DMSO (HDAC2; iL, A549 lysate, log10 M -5): 0.3145
relative binding vs DMSO (HDAC2; [2]): 0.7222
relative binding vs DMSO (HDAC2; iL, A549 lysate, log10 M -6): 0.7592
relative binding vs DMSO (HDAC2; [3]): 1.015
relative binding vs DMSO (HDAC2; [4]): 1.14
relative binding vs DMSO (HDAC2; iL, A549 lysate, log10 M -8): 1.179
relative binding vs DMSO (HDAC2; [5]): 1.15
Kd (HDAC2; iL, SW620): 6.31 µM
relative binding vs DMSO (HDAC2; [6]): 0.08452
relative binding vs DMSO (HDAC2; iL, SW620 lysate, log10 M -4): 0.1723
relative binding vs DMSO (HDAC2; [7]): 0.723
relative binding vs DMSO (HDAC2; iL, SW620 lysate, log10 M -5): 1.4202
relative binding vs DMSO (HDAC2; [8]): 0.8654
relative binding vs DMSO (HDAC2; iL, SW620 lysate, log10 M -6): 1.086
relative binding vs DMSO (HDAC2; [9]): 0.8422
relative binding vs DMSO (HDAC2; iL, SW620 lysate, log10 M -7): 1.138
Kd (HDAC2; iQ, SW620): 31.6 µM
relative binding vs DMSO (HDAC2; [10]): 0.2247
relative binding vs DMSO (HDAC2; iQ, SW620 lysate, log10 M -4): 0.2743
relative binding vs DMSO (HDAC2; [11]): 0.6023
relative binding vs DMSO (HDAC2; iQ, SW620 lysate, log10 M -5): 0.7491
relative binding vs DMSO (HDAC2; [12]): 0.82
relative binding vs DMSO (HDAC2; iQ, SW620 lysate, log10 M -6): 0.8431
relative binding vs DMSO (HDAC2; [13]): 0.9314
relative binding vs DMSO (HDAC2; iQ, SW620 lysate, log10 M -7): 0.8052
Kd (HDAC1; iL, A549): 1 µM
relative binding vs DMSO (HDAC1; iL, A549 lysate, log10 M -4): 0.3621
relative binding vs DMSO (HDAC1; [1]): 0.1828
relative binding vs DMSO (HDAC1; iL, A549 lysate, log10 M -5): 0.2687
relative binding vs DMSO (HDAC1; [2]): 0.5244
relative binding vs DMSO (HDAC1; iL, A549 lysate, log10 M -6): 0.7392
relative binding vs DMSO (HDAC1; [3]): 0.8303
relative binding vs DMSO (HDAC1; [4]): 1.235
relative binding vs DMSO (HDAC1; iL, A549 lysate, log10 M -8): 1.138
relative binding vs DMSO (HDAC1; [5]): 1.054
Kd (HDAC1; iL, SW620): 7.94 µM
relative binding vs DMSO (HDAC1; [6]): 0.1153
relative binding vs DMSO (HDAC1; iL, SW620 lysate, log10 M -4): 0.1408
relative binding vs DMSO (HDAC1; [7]): 0.5904
relative binding vs DMSO (HDAC1; iL, SW620 lysate, log10 M -5): 0.9976
relative binding vs DMSO (HDAC1; [8]): 0.8296
relative binding vs DMSO (HDAC1; iL, SW620 lysate, log10 M -6): 0.9942
relative binding vs DMSO (HDAC1; [9]): 0.9252
relative binding vs DMSO (HDAC1; iL, SW620 lysate, log10 M -7): 1.135
Kd (HDAC1; iQ, SW620): 25.1 µM
relative binding vs DMSO (HDAC1; [10]): 0.2247
relative binding vs DMSO (HDAC1; iQ, SW620 lysate, log10 M -4): 0.2525
relative binding vs DMSO (HDAC1; [11]): 0.6007
relative binding vs DMSO (HDAC1; iQ, SW620 lysate, log10 M -5): 0.7446
relative binding vs DMSO (HDAC1; [12]): 0.8354
relative binding vs DMSO (HDAC1; iQ, SW620 lysate, log10 M -6): 0.8396
relative binding vs DMSO (HDAC1; [13]): 0.9165
relative binding vs DMSO (HDAC1; iQ, SW620 lysate, log10 M -7): 0.8126
